Laboratory results from the supplement of paper PMC10307832.

Experiments:
Assay in all cases: relative viability (nuclei count vs DMSO), 5 days (fraction); higher = more cells survive
[1] = compound: CC1=C(C(=NN1)C)CC2=C(C3=C(S2)N(C(=O)N(C3=O)C)CC(C)C)C(=O)N4C[C@@H](CO4)O + Cc1nc(NC(=O)N2CCC[C@H]2C(N)=O)sc1-c1ccnc(C(C)(C)C(F)(F)F)c1 [Alpelisib] (partner 2 µM)
In short: (§1)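 Relative viability equals treated-well nuclei counts divided by vehicle-well nuclei counts. Counts came from 4× images of lung cancer cell lines grown in 1536-well plates for 5 days after pin-tool dosing on the day after seeding. Dosing used one drug alone or a fixed anchor-drug dose plus five library-drug doses (not always all listed) in √10 steps, and values are medians of duplicate plates.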

IDH-C35 + Crizotinib = compound: Cc1ccccc1C(C(=O)NC1CCCCC1)N(C(=O)Cn1ccnc1C)c1cccc(F)c1 [IDH-C35] + C[C@@H](Oc1cc(-c2cnn(C3CCNCC3)c2)cnc1N)c1c(Cl)ccc(F)c1Cl [Crizotinib] (partner 1 µM)
In short: as §1

IDH-C35 + Foretinib = compound: Cc1ccccc1C(C(=O)NC1CCCCC1)N(C(=O)Cn1ccnc1C)c1cccc(F)c1 [IDH-C35] + COc1cc2c(Oc3ccc(NC(=O)C4(C(=O)Nc5ccc(F)cc5)CC4)cc3F)ccnc2cc1OCCCN1CCOCC1 [Foretinib] (partner 0.25 µM)
In short: as §1

[2] = compound: CC1=C(C(=NN1)C)CC2=C(C3=C(S2)N(C(=O)N(C3=O)C)CC(C)C)C(=O)N4C[C@@H](CO4)O + Cc1nc(Nc2ncc(C(=O)Nc3c(C)cccc3Cl)s2)cc(N2CCN(CCO)CC2)n1 [Dasatinib] (partner 0.075 µM)
In short: as §1

Cell Line | relative viability ([1]; first compound 0.0025 µM) | relative viability ([1]; first compound 0.007906 µM) | relative viability ([1]; first compound 0.025 µM) | relative viability ([1]; first compound 0.07906 µM) | relative viability ([1]; first compound 0.25 µM) | relative viability (IDH-C35 + Crizotinib; first compound 0.08 µM) | relative viability (IDH-C35 + Crizotinib; first compound 0.253 µM) | relative viability (IDH-C35 + Crizotinib; first compound 0.8 µM) | relative viability (IDH-C35 + Crizotinib; first compound 2.53 µM) | relative viability (IDH-C35 + Crizotinib; first compound 8 µM) | relative viability (IDH-C35 + Foretinib; first compound 0.08 µM) | relative viability (IDH-C35 + Foretinib; first compound 0.253 µM) | relative viability (IDH-C35 + Foretinib; first compound 0.8 µM) | relative viability (IDH-C35 + Foretinib; first compound 2.53 µM) | relative viability (IDH-C35 + Foretinib; first compound 8 µM) | relative viability ([2]; first compound 0.0025 µM) | relative viability ([2]; first compound 0.007906 µM) | relative viability ([2]; first compound 0.025 µM) | relative viability ([2]; first compound 0.07906 µM) | relative viability ([2]; first compound 0.25 µM)
HCC-44 | 0.817 | 0.851 | 0.798 | 0.795 | 0.777 | 0.848 | 0.794 | 0.719 | 0.801 | 0.733 | – | – | – | – | – | – | – | – | – | –
HCC-78 | 0.409 | 0.343 | 0.315 | 0.319 | 0.299 | 0.343 | 0.349 | 0.342 | 0.322 | 0.303 | 0.586 | 0.57 | 0.563 | 0.555 | 0.525 | 0.392 | 0.486 | 0.374 | 0.366 | 0.236
HCC-366 | 0.489 | 0.475 | 0.396 | 0.54 | 0.49 | 0.546 | 0.51 | 0.564 | 0.546 | 0.42 | 0.986 | 0.981 | 0.937 | – | 0.938 | 0.601 | 0.813 | 0.836 | 0.635 | 0.789
HCC-827 | 1.01 | 1.01 | 0.962 | 0.93 | 0.939 | 0.911 | 0.956 | 0.911 | 0.876 | 0.957 | 1.05 | 0.964 | 1.01 | 1.03 | 1.05 | 0.288 | 0.317 | 0.32 | 0.203 | 0.24
HOP-62 | 0.959 | 1.15 | 1.01 | 0.862 | 0.696 | 0.839 | 1.04 | 0.832 | – | 0.925 | 1.11 | 1.01 | 0.999 | 1.09 | 1.13 | 0.672 | 0.852 | 0.74 | 0.466 | 0.559
IA-LM | 0.832 | 0.812 | 0.858 | 0.749 | 0.991 | 0.94 | 0.874 | 0.741 | 0.755 | 0.704 | 1.06 | 1.24 | 1.12 | 1.12 | 1.1 | – | – | – | – | –
LC-2-ad | 0.985 | 0.85 | 0.842 | 0.897 | 0.921 | 0.463 | 0.454 | 0.426 | – | 0.485 | 0.917 | 0.938 | 0.904 | – | 0.908 | 0.726 | 0.474 | 0.626 | 0.545 | 0.588
LCLC-97TM1 | 0.276 | 0.206 | 0.257 | 0.188 | 0.228 | 0.366 | 0.281 | 0.291 | – | 0.293 | 0.921 | 0.865 | 0.947 | 1.02 | 0.954 | 0.898 | 0.897 | 0.735 | 0.852 | 0.878
LCLC-103H | 1.06 | 1 | 0.959 | 0.957 | 0.896 | 1.01 | 1.07 | 1 | 1.07 | 0.987 | 0.795 | 0.717 | 0.85 | 0.754 | 0.736 | 0.669 | 0.493 | 0.489 | 0.357 | 0.513
LK-2 | 1.06 | 1.03 | 1.09 | 1.05 | 1.08 | 0.223 | 0.23 | 0.215 | 0.209 | 0.233 | 1.23 | 1.36 | 1.27 | 1.12 | 1.48 | 0.231 | 0.296 | 0.308 | 0.253 | 0.275
NCI-H522 | – | – | – | – | – | – | – | – | – | – | – | – | – | – | – | 0.971 | 0.97 | 0.763 | 0.649 | 0.662
NCI-H1299 | 1.07 | 1.08 | 1.01 | 1.09 | 1.11 | 0.97 | 0.953 | 0.981 | 0.923 | 0.93 | 1.1 | 1.07 | 1.01 | 1.06 | 1.09 | – | – | – | – | –
NCI-H1395 | 1.04 | 0.898 | 1.06 | 0.983 | 1.01 | – | – | – | – | – | 0.972 | 0.976 | 1.07 | 0.896 | 0.971 | 0.412 | 0.412 | 0.352 | 0.32 | 0.335
NCI-H1623 | – | – | – | – | – | – | – | – | – | – | 0.91 | 0.854 | 0.811 | 0.896 | 0.861 | 0.505 | 0.513 | 0.549 | 0.442 | 0.453
NCI-H1650 | – | – | – | – | – | 0.796 | 0.978 | 0.965 | 0.914 | 0.923 | 1.11 | 1.13 | 1.23 | 0.879 | 1.14 | 0.425 | 0.362 | 0.287 | 0.457 | 0.227
NCI-H1703 | 0.366 | 0.211 | 0.32 | 0.309 | 0.299 | 0.582 | 0.875 | 1.09 | 0.636 | 0.823 | 0.321 | 0.335 | 0.334 | 0.367 | 0.348 | – | – | – | – | –
NCI-H1792 | 0.82 | 0.624 | 0.699 | 0.58 | 0.555 | 0.972 | 0.949 | 0.94 | 1.01 | 0.971 | – | – | – | – | – | 0.836 | 0.947 | 0.813 | 0.569 | 0.687
NCI-H1793 | 0.724 | 0.826 | 0.546 | 0.554 | 0.742 | – | – | – | – | – | 0.753 | 0.81 | 0.724 | – | 0.624 | 0.428 | 0.375 | 0.39 | 0.362 | 0.377
NCI-H2342 | – | – | – | – | – | – | – | – | – | – | 0.969 | 1.02 | 1.17 | 1.16 | 1.01 | 0.297 | 0.348 | 0.283 | 0.322 | 0.352
SW 900 | – | – | – | – | – | – | – | – | – | – | 0.729 | 0.909 | 0.877 | 0.6 | 0.926 | 0.768 | 0.696 | 0.614 | 0.476 | 0.559
